According to patent US10654838B2, “Aminopyridine compounds useful as inhibitors of protein prenylation” (INSTITUT NATIONAL DE LA SANTE ET DE LA RECHERCHE MEDICALE …, priority 2014, dated 2020):

Legend:
HGPS MSCs [1] = test: Nuclear shape abnormalities (lamin A/C immunostaining); format: cell-based, human; conditions: 48 h, lamin A/C staining
Protocol: (§1) In the 4-steps protocol, cells were fixed in 4% paraformaldehyde (15 minutes, room temperature) before permeabilization and blocking in PBS supplemented with 0.1% triton X-100 and 1% BSA (Sigma-Aldrich, St. Louis, USA). Primary antibodies were incubated one hour at room temperature in blocking buffer. Antibodies included mouse anti-lamins A/C (clone JOL2, Millipore, Billerica, USA), rabbit anti-prelamin A (ANTOO45, Diatheva) and anti-Ki67 (clone Ki-S5, MAB4190, Millipore, Billerica, USA). Cells were stained with the species-specific fluorophore-conjugated secondary antibody (Invitrogen) (one hour, room temperature) and nuclei were visualized with Hoechst 33342.

prelamin A = test: Western immunoblotting of prelamin A; format: cell-based, human; conditions: HGPS MSCs, optimal concentration
Protocol: Whole-cell lysates of MSC were collected, separated by SDS-PAGE, and transferred onto PVPF membrane by liquid transfer method. Blots were blocked in 10% skim milk (Bio-Rad) in tween 0.1% tris-buffered saline (TTBS) 1× one hour at room temperature. The primary antibodies used were a mouse anti-lamins A/C 1:200 (Millipore, JOL2), a rabbit anti-prelamin A 1/100 (ANTOO45, Diatheva) and a β-actin 1/200000 (Sigma). Membranes were incubated during the night at 4° C. Antigen-antibody binding was detected using horseradish peroxidaseconjugated species-specific secondary antibodies (GE-Healthcare, Little Chalfont, UK) followed by enhanced chemiluminescence Western blotting detection reagents (Perkin-Elmer, Waltham, USA).

[2] = system: lamin A and progerin mRNA expression; test: Quantitative PCR of lamin A and progerin mRNA; format: cell-based, human; conditions: HGPS MSCs, 48 h, normalized on DMSO 0.1%
Protocol: Total RNA was isolated using RNeasy Mini extraction kit (Qiagen, Courtaboeuf, France) according to the manufacturer's protocol. An on-col DNase I digestion was performed to avoid genomic DNA amplification. RNA level and quality were checked using the Nanodrop technology. A total of 500 ng of RNA was used for reverse transcription using the Superscript III reverse transcription kit (Invitrogen). Q-PCR analysis was performed using a ABI 7900 system (Applied biosystem) and TaqMan gene expression Master Mix (Roche) following the manufacturer's instructions. Quantification of gene expression was based on the DeltaCt Method and normalized on 18S expression (Assay HS_99999901_S1). PCR primers were previously described by S. Rodriguez and colleagues (Rodriguez S et al., 2009, Eur J Hum Genet, VOL 17(7): 928-37). Primer sequences were lamin A (exons 11/12), 5′-[…]-3′ (SEQ N^o 1) and 5′-AGTTCTGGGGGCTCTGGGT-3′ (SEQ N^o 2); lamin C (exons 9/10), 5′-[…]-3′ (SEQ N^o 3) and 5′-CGGCGGCTACCACTCAC-3′ (SEQ ID N^o 4) and Progerin
(exons 11/12), 5′-ACTGCAGCAGCTCGGGG-3′ (SEQ N^o 5) and 5′-TCTGGGGGCTCTGGGC-3′ (SEQ ID N^o 6).
Taqman MGB probe sequences were lamin A (exon 11), 5′-ACTCGCAGCTACCG-3′ (SEQ N^o 7); lamin C (exon10), 5′-ATGCGCAAGCTGGTG-3′ (SEQ ID N^o 8) and Progerin (exon 11), 5′-CGCTGAGTACAACCT-3′ (SEQ ID N^o 9). […]

HDJ2 = test: Western blot analysis of HDJ2 farnesylation; format: cell-based, human
HGPS MSCs [3] = test: ATP measurement (CellTiter Glo); format: cell-based, human; conditions: 48 h
Protocol: HGPS and control MSC were seeded in a 96 well plates (3917, Corning) (5000 cells/well) and treated with the different drugs. After 48 hours of treatment in unique dose, ATP content was measured using CellTiter Glo® (Promega) accordingly to the manufacturer recommendations. Luminescence was measured with an Analyst GT multimode plate reader (Molecular devices). In parallel, Hoechst 33342 stained nuclei were counted in each well thanks to an automated microscope. The results exploited are given in the ratio between ATP measurement and the number of nuclei counted.

HGPS MSCs [4] = test: Cell proliferation (Ki-67 immunostaining); format: cell-based, human; conditions: 48 h
Protocol: as §1

HGPS MSCs [5] = test: Osteogenic differentiation (alkaline phosphatase activity); format: cell-based, human; conditions: 7 days of osteogenic differentiation
Protocol: MSC were seeded at 600 cells per well in 384 well plate in MSC culture medium and treated as previously described. After 72 hours, MSC medium was replaced by STEMPRO osteogenic induction medium (Invitrogen) in presence or not of the different drugs. After 7 days of treatment, cells were fixed with ethanol 95% and stained by adding either a colorimetric substrate of the alkaline phosphatase, the 5-Bromo-4-chloro-3-indolyl phosphate/Nitro blue tetrazolium (NBT) (Sigma-Aldrich) or a chromogenic substrate of this enzyme (absorbance at 405 nm), the p-Nitrophenyl Phosphate (pNPP) (Pierce Biotechnology).

FPPS [6] = target: T1, FPPS (Homo sapiens, UniProt P14324); test: FPPS activity assay; format: biochemical; design: endogenous in cells; host or cells: HGPS MSCs (cell lysate); conditions: concentration inducing 50% of the maximum inhibiting effect of the compound
T1 sequence (P14324 1-419): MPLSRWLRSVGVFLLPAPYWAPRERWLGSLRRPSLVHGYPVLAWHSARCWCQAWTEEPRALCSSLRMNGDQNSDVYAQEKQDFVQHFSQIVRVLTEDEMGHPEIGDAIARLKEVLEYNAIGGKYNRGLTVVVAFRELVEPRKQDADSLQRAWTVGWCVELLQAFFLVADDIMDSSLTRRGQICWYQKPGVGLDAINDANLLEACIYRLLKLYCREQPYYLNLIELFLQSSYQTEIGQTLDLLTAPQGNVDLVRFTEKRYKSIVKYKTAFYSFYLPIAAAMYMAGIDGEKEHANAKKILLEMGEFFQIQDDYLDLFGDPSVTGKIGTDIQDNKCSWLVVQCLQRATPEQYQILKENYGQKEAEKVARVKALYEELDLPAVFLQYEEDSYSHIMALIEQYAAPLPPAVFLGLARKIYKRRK
Protocol: (§2) Cell pellet of HGPS MSCs were resuspended in 25 mM Tris-HCl pH 7.4, 1 mM DTT, 1 mM MgCl2, 1 EDTA, 1 mM PMSF and centrifuged at 10,000×g for 10 min at 4° C. Protein content was determined using Lowry's method. Aliquots of cell lysate containing 100 μg of total proteins were incubated with tested substances at 37° C. for 30 min.
FPPS assay was carried out with some modifications of the procedure of Krisans et al. (Krisans et al., 1994, The Journal of biological chemistry VOL. 269: 14165-14169) and described by Gupta et al. (Gupta et al., 1999, Eur J Med Chem, VOL. 43: 2751-2767). Briefly, FPPS was assayed in 150 μL containing 25 mmol/L Hepes, pH=7, 2 mmol/L MgCl2, 1 mmol/L dithiothreitol, 5 mmol/L KF, 1% A noctyl-β-glucopyranoside, 3.3 μmol/L [4-14C] IPP (18 Ci/mmol), 3 μmol/L unlabeled IPP and 20 μmol/L geranyl diphosphate. Reactions were started by adding 40 μL of treated or untreated cell lysate and incubated for 45 min at 37° C. Reactions were stopped by the addition of 150 μL 2.5 mol/L HCl in 80% ethanol containing 100 μg/mL farnesol as a carrier. The samples were hydrolyzed for 30 min at 37° C. to convert the FPP to farnesol and neutralized by the addition of 150 μL of 10% NaOH. The reaction product (farnesol) was extracted into 1 mL of N-hexane and an aliquot (200 μL) of the organic phase was used for radioactivity counting. Parallel samples were assayed to evaluate the total and the nonspecific radioactivity. In all experiments, enzyme assays were carried out in triplicate.

HMGCR = target: T2, HMGCR (Homo sapiens, UniProt P04035); test: HMGCR colorimetric activity assay; format: biochemical
T2 construct: oxidation of NADPH by the catalytic subunit of HMGCR in the presence of the substrate HMG CoA; purchased Sigma-Aldrich
T2 sequence (P04035 340-888 limits assumed): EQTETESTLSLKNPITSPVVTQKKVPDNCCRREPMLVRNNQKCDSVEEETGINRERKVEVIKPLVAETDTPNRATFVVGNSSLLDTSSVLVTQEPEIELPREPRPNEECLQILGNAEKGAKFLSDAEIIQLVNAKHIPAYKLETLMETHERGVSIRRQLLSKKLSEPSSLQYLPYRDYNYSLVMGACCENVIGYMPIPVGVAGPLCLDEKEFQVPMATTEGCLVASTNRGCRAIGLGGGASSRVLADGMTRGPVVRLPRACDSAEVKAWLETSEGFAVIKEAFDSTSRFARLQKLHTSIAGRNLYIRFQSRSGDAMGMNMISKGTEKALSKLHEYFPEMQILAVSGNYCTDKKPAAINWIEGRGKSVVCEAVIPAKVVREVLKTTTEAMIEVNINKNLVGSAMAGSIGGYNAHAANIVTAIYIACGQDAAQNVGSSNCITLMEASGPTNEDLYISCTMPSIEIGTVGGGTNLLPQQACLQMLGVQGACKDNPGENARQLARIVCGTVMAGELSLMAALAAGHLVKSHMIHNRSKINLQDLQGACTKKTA
Protocol: HMGCR activity was measured using GCoA Reductase Assay Kit (Sigma-Aldrich) according to the manufacturer's protocol. The assay is based on the spectrophotometric measurement of the decrease in absorbance at 340 nm, which represents the oxidation of NADPH by the catalytic subunit of HMGCR in the presence of the substrate HMG CoA.

FT = target: T3, FT (Homo sapiens, UniProt P49354+P49356); test: FT activity assay (Farnesyltransferase [3H] SPA); format: biochemical; conditions: concentration inducing 50% of the maximum inhibiting effect of the compound
T3 construct: Reactions were started by adding 40 μL of treated or untreated cell lysate; endogenous in cells; host or cells: HGPS MSCs (cell lysate)
Protocol: as §2
FT activity was determined by Famesyltransferase [3H] SPA enzyme assay (Amersham Life Science, Buckinghamshire, England). Briefly, FT activity was assayed in 20 μl of assay buffer containing 50 mmol/L Hepes, 30 mmol/L MgCl2, 20 mmol/L KCl and 5 mmol/L dithiothreitol, 20 μl of [3H]-FPP (12 pmol) and 20 μl of biotin lamin B. Reactions were started by adding 40 μL of treated or untreated cell lysate and incubated for 1 hour at 37° C. Reactions were stopped by the addition of 150 μL of stop reagent containing SPA bead and counted in a scintillation counter. FT activity was expressed as pmoles of incorporated [3H]-FPP into biotin lamin-B peptide per minute per milligram of total proteins (pmol/min/mg prot). Parallel samples were assayed to evaluate the total and the nonspecific radioactivity. In all experiments enzyme assays were carried out in triplicate.

FPPS [7] = target: T1, FPPS; test: Surface plasmon resonance on immobilized FPPS; format: binding
Protocol: Surface plasmon resonance (SPR) was measured using a BIAcore 3000 instrument at 25° C. FPPS (2800 RU) was immobilized on flow cells of a CM5-chip. The running buffer was HBSEP pH 7.4 (20 mM Hepes, 150 mM NaCl, and 0.005% P20). Regeneration was performed with 10 mM glycine, pH 3.0. […] Data were evaluated using Scrubber2 (Biologic software) and BIAeval software (BIAcore).

HGPS MSCs [8] = test: Live cell imaging (cell density); format: cell-based, human; conditions: 7 days
Protocol: HGPS MSCs were seeded at 2500 cells per well in 96-well plates and cultivated during 7 days in presence of the drugs. Cell density was monitored using an IncuCyte ZOOM microscope (Essen Bioscience). Each value corresponds to the mean of cell densities of four pictures taken in three independent wells.

Cc1cccc(N(C)c2cc(N3CCN(C(=O)Cc4c(-c5ccccc5)[nH]c5ccccc45)CC3)ncn2)c1 [Di-AP1, 1-{4-[6-(Methyl-m-tolyl-amino)-pyrimidin-4-yl]-piperazin-1-yl}-2-(2-phenyl-1H-indol-3-yl)-ethanone]
rescue of nuclear shape abnormalities (HGPS MSCs [1]): not efficient
prelamin A level (Western blot) (prelamin A): increased
lamin A and progerin mRNA expression [2]: increased
unfarnesylated form of HDJ2 (HDJ2): increase of the unfarnesylated form of the protein
ATP content (energetic metabolism) (HGPS MSCs [3]): increased ATP content
number of Ki-67 positive cells (HGPS MSCs [4]): up to 65%
rescue of premature osteogenic differentiation (alkaline phosphatase activity) (HGPS MSCs [5]): not significantly different to those observed following FTI treatment

N#CC(c1ccncc1)c1cc(N2CCN(C(=O)c3cccs3)CC2)ncn1 (centres unmarked) [Mono-AP2, Pyridin-4-yl-{6-[4-(thiophene-2-carbonyl)-piperazin-1-yl]-pyrimidin-4-yl}-acetonitrile]
rescue of nuclear shape abnormalities (HGPS MSCs [1]): restoring HGPS MSCs nuclear shape defects at levels not significantly different from the FTI tipifarnib
prelamin A level (Western blot) (prelamin A): increased
unfarnesylated form of HDJ2 (HDJ2): increase of the unfarnesylated form of the protein
IC50 (FPPS [6]): 1.82 µM
IC50 (μM) HMGCR (HMGCR): No inhibition
IC50 (FT): 9.32 µM
direct interaction with FPPS (SPR), in words (FPPS [7]): confirmed the direct interactions
Ka (1/M), association constant (FPPS [7]; SPR, BIAcore 3000, 25° C.): 5040 M⁻¹
Kd (FPPS [7]; SPR, BIAcore 3000, 25° C., read-out: Kd (M), equilibrium dissociation constant): 0.0002 M
cytostatic effect in long term live imaging cultures (HGPS MSCs [8]): less cytostatic than the FTI tipifarnib
